Measurements published in patent US9090668B2, “Process for synthesizing cyclic peptide compound” (THE UNIVERSITY OF TOKYO, priority 2007, dated 2015).
*1 amine or outer side, *2 acyl side, *3 side chain or, on linkers, in order; H or OH if unused. Where a SMILES comes first, the peptide text is derived from it. Bridges are numbered along the chain shown (N, C = ends). [ ]: non-standard residue; d: D form. The star is where a group is joined. hMet = CSCCC[C@H](N)C(=O)O; Orn = NCCC[C@H](N)C(=O)O; Dab = NCC[C@H](N)C(=O)O; X1 = O=C(C[*:2])[*:1]; For = O=C*

How the values were obtained:
proteinase K = proteinase K (Parengyodontium album, UniProt P06873); assay: Protease resistance of peptides against proteinase K, analysed by MALDI-MS; type: in vitro ADME; conditions: 5 μg/ml proteinase K, 37° C., 1 hour
Procedure: Translationally synthesized peptides and purchased Urotensin II peptides were reacted in 5 μg/ml of a proteinase K solution at 37° C. for 1 hour in the presence of, or in the absence of, 1 mM DTT.

Urotensin II receptor = target: T1, Urotensin II receptor (Homo sapiens, UniProt Q9UKP6); assay: Calcium mobilization measurement in HEK-UTR cells (Fluo-4-AM fluorescence); type: cell-based; conditions: HEK-UTR cells (HEK cells expressing an Urotensin II receptor)
T1 construct: expressed in transfected cells; host or cells: HEK cells (HEK-UTR)
T1 sequence (Q9UKP6 1-389): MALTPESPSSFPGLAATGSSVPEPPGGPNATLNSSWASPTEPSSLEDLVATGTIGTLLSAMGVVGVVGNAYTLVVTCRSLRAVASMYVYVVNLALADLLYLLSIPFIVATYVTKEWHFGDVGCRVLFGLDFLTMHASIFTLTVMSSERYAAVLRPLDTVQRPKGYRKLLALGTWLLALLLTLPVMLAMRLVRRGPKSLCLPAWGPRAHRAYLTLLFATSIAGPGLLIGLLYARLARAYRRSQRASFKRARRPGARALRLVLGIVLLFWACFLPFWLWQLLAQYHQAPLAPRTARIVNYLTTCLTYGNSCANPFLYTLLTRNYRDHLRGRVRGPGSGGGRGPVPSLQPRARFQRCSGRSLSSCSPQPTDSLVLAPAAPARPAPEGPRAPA
Procedure: FIG. 10 illustrates calcium mobilization in cells by addition of peptides using a fluorescent reagent. 2×10^5 HEK-UTR cells (HEK cells expressing an Urotensin II receptor) were seeded into a 96 well plate. After 12-16 hours, the cells were incubated in 1 μM Fluo-4-AM (Dojindo Laboratories) for 1 hour. After the incubation was completed, the fluorescent reagent was removed, and 90 μL of an assay buffer (Hanks Balanced Salts Solution (HBSS), 10 mM HEPES, 200 μM of CaCl2, 0.1% BSA, and 2.5 mM probenecid) was added. Then, 10 μL of peptides dissolved in an assay buffer was added, and changes in an intensity of fluorescent light were measured by a microplate reader. The peptides were prepared by purifying the translation product by Zip-tip (Millipore) and distilling off the elute under reduced pressure.

Sequence of proteinase K (P06873 106-384, species assumed): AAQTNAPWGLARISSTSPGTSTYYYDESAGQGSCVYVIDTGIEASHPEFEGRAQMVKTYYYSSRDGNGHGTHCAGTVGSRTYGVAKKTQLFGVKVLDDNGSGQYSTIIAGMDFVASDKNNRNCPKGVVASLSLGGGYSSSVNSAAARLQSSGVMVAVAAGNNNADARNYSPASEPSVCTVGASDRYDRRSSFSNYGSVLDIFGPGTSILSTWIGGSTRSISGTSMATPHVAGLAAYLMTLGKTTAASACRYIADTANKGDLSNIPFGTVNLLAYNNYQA

| Structure (SMILES) | degradation by proteinase K (proteinase K) | calcium mobilization in cells (change in fluorescence intensity) (Urotensin II receptor) | degradation by proteinase K after change into linear form by DTT (proteinase K; in the presence of 1 mM DTT) |
| --- | --- | --- | --- |
| CSCCC[C@H](NC=O)C(=O)N1CCC[C@H]1C(=O)N[C@@H](CC(=O)O)C(=O)N[C@H]1CCNC(=O)CSC[C@@H](C(=O)N[C@H](C(=O)O)C(C)C)NC(=O)[C@H](Cc2ccc(O)cc2)NC(=O)[C@H](CCCN)NC(=O)[C@H](Cc2c[nH]c3ccccc23)NC(=O)[C@H](Cc2ccccc2)NC1=O [YS9] (For-[hMet]PD[Dab]FW[Orn]YCV-OH; linker 4-9 via X1) | not degraded | calcium mobilization in the cells was observed | – |
| CSCC[C@H](NC=O)C(=O)N1CCC[C@H]1C(=O)N[C@@H](CC(=O)O)C(=O)N[C@@H](CC(C)C)C(=O)N[C@@H](Cc1ccccc1)C(=O)N[C@@H](Cc1c[nH]c2ccccc12)C(=O)N[C@@H](CCCCN)C(=O)N[C@@H](Cc1ccc(O)cc1)C(=O)N[C@@H](CS)C(=O)N[C@H](C(=O)O)C(C)C [YS10] (For-MPDLFWKYCV-OH; N-terminus and C-terminus assumed) | degraded | – | – |
| CC(C)[C@H](NC(=O)[C@@H]1CSSC[C@H](NC(=O)[C@H](CC(=O)O)NC(=O)[C@@H]2CCCN2C(=O)[C@@H](NC(=O)[C@@H](N)CCC(=O)O)[C@@H](C)O)C(=O)N[C@@H](Cc2ccccc2)C(=O)N[C@@H](Cc2c[nH]c3ccccc23)C(=O)N[C@@H](CCCCN)C(=O)N[C@@H](Cc2ccc(O)cc2)C(=O)N1)C(=O)O [Urotensin II] | not degraded | – | decomposed |
